Assay results from patent publication US5849760A, “2-(arylalkenyl)azacycloalkane derivatives as ligands for sigma receptors” (Institut de Recherche Jouveinal, priority 1993, dated 1998).
Structures can show the parent of a compound that is named as a salt.

How the values were obtained:
sigma receptors = target: T1, sigma receptors (Rattus norvegicus, UniProt Q9R0C9); experiment: In vitro binding to sigma receptors with (+)[^3 H]SKF10.047; conditions: for IC50: rat brain membrane, (+)[^3 H]SKF10.047; for IC50, haloperidol / IC50, example: ratio to haloperidol, second series, rat brain membranes, [^3 H]SKF10.047
T1 construct: a preparation of rat brain membrane; from tissue; host or cells: rat brain membranes
Protocol: Experiments on binding to sigma and PCP receptors are performed with the ligands (+)[^3 H]SKF10.047 and [^3 H]TCP, respectively, by the technique described by Largent, B. L., et al. in J. Pharmacol. Exp. Ther., 1986, Vol. 238, pp. 739-748. The principle of this technique is to place in competition the affinity of the test substance and that of a radioactive ligand specific for the receptor being studied.
The results are expressed as the IC50 of the test substance, which is the concentration at which the tritiated ligand is displaced from 50% of its binding sites in the membrane preparation used.

PCP receptors = experiment: In vitro binding to PCP receptors with [^3 H]TCP; conditions: rat brain membrane
Protocol: The test of binding to phenylcyclidine receptors (PCP receptors), performed in the presence of a ligand specific for PCP receptors, [^3 H]TCP, was used to investigate any undesirable interaction of the compounds of the invention with these receptors.
The principle of this technique is to place in competition the affinity of the test substance and that of a radioactive ligand specific for the receptor being studied.
The technique consists in incubating a preparation of rat brain membrane loaded with the labeled ligand specific for the receptor under study in solutions of varying concentration of the test substance. After filtration, one measures the radioactivity of the solution, which represents the displacement of this labeled ligand by the test substance.

[1] = system: cysteamine-induced gastroduodenal ulcers; experiment: Cysteamine-induced gastroduodenal ulcer; format: in vivo, male Sprague-Dawley rats; conditions: I.P. route, 30 min before ulcerogenic agent, dose inhibiting 50% of ulcers; for ED50: Rattus norvegicus, ip, 18 h
Protocol: The activity of the compounds of the invention with respect to the gastrointestinal tract was shown in the rat by their ability to inhibit gastroduodenal ulcers induced by the administration of cysteamine. In terms of practical methodology, the study is performed according to the method described by Robert, A., et al., in Digestion, 1974, Vol. 11, pp. 199-214, in groups of male Sprague-Dawley rats with an average weight of 200 g, to which a cysteamine hydrochloride solution is administered by subcutaneous injection in a dose of 400 mg/kg. The test compounds are administered to the animals 1 h or 30 min, respectively, before the ulcerogenic agent, depending on whether the oral or intraperitoneal route is used. Eighteen hours later, the rats are sacrificed by elongation; the stomach and duodenum are removed, rinsed with physiological salt solution, and pinned to a card. The antropyloroduodenal region is examined for ulcers, and the area of the ulcers, expressed in mm^2, is determined by multiplying the two main perpendicular axes of the lesion. Statistical analysis of the results is performed by means of Student's t-test for the ulcerated areas in comparison with a control group. The results obtained after intraperitoneal administration are presented in Table 3 and are expressed as the ED50, which is the effective dose (mg/kg) of compound inhibiting 50% of the cysteamine-induced ulcers. Igmesine is presented by way of comparison.

T1 sequence (Q9R0C9 whole entry): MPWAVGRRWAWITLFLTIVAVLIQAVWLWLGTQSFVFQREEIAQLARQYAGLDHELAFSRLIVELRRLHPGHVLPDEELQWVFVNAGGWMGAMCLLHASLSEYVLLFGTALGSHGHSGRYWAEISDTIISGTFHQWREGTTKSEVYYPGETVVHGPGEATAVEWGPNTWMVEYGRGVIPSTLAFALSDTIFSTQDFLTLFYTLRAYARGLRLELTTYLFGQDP

| IC50, haloperidol / IC50, example (sigma receptors) | Structure (SMILES) | ED50 [1] [mg/kg] | other results |
| --- | --- | --- | --- |
| – | C(=C\c1ccccc1)/CC1CCCN1CC1CC1 (racemic) [Example 1.1, (±)-(E)-2-cinnamyl-1-cyclopropylmethylpyrrolidine] | 0.185 | IC50 (sigma receptors): 34.2 nM; IC50 (PCP receptors): > 10000 nM |
| – | C(=C/c1ccccc1)/CC1CCCCN1CC1CC1 (stereo not drawn) [Example 2A.6, (Z)-2-cinnamyl-1-cyclopropylmethylpiperidine] | < 0.1 | IC50 (sigma receptors): 34.3 nM; IC50 (PCP receptors): > 10000 nM |
| 1.6 | C(=C\c1ccccc1)/CC1CCCN1CC1CC1 (single isomer, unassigned; (-)) [Example 1.3, (-)-(E)-2-cinnamyl-1-cyclopropylmethylpyrrolidine] | – | ED50, cysteamine-induced ulcer ([1]; 1080 min): < 0.100 mg/kg |
| – | C(=C\c1ccccc1)/CC1CCCCN1CC1CC1 (single isomer, unassigned; (+)) [Example 2A.2, (+)-(E)-2-cinnamyl-1-(cyclopropylmethyl)piperidine] | < 0.1 | – |
| 1.6 | Fc1ccc(/C=C\CC2CCCCN2CC2CC2)cc1 (stereo not drawn) [Example 2B.2, (Z)-2-(p-fluorocinnamyl)-1-cyclopropylmethylpiperidine] | – | – |
| 4.3 | C(=C/c1ccccc1)/CC1CCCN1CC1CC1 (stereo not drawn) [Example 2K, (Z)-2-cinnamyl-1-cyclopropylmethylpyrrolidine] | – | – |
| 1.1 | Fc1ccc(/C=C/CC2CCCN2CC2CC2)cc1 (stereo not drawn) [Example 2L, (E)-2-(p-fluorocinnamyl)-1-cyclopropylmethylpyrrolidine] | – | – |
| – | CCC(C/C=C/c1ccccc1)(c1ccccc1)N(C)CC1CC1 (single isomer, unassigned; (+)) [Igmesine, (+)-N-(cyclopropylmethyl)-1-ethyl-N-methyl-1,4-diphenyl-3-butene-1-ylaminehydrochloride, reference compound] | 5.95 | – |
| – | C(=C\c1ccccc1)/CC1CCCN1CC1CCC1 (stereo not drawn) [Example 1.4, (E)-2-cinnamyl-1-cyclobutylmethylpyrrolidine] | 0.137 | affinity for sigma receptors (sigma receptors; in words): strong affinity for sigma receptors; IC50 (sigma receptors): 4.52 nM; IC50 (PCP receptors): > 10000 nM |
| 2.3 | C(=C\c1ccccc1)/CC1CCCCN1CC1CCC1 (stereo not drawn) [Example 2A.4, (E) -2-cinnamyl-1-cyclobutylmethylpiperidine] | – | – |
| 0.8 | FC(F)(F)c1ccc(/C=C/CC2CCCCN2CC2CC2)cc1 (stereo not drawn) [Example 2G, (E)-2-(p-trifluoromethylcinnamyl)-1-cyclopropylmethylpiperidine] | – | – |
| – | C(=C\c1ccccc1)/CC1CCCCN1CC1CC1 (stereo not drawn) [Example 2A.1, (E)-2-cinnamyl-1-cyclopropylmethylpiperidine] | 0.1 | – |
| 1.0 | C(=C\c1ccccc1)/CC1CCCCN1CCc1ccccc1 (stereo not drawn) [Example 2A.5, (E)-2-cinnamyl-1-(phenethyl)piperidine] | – | – |
| – | C(=C\c1ccccc1)/CC1CCCN1CC1CC1 (single isomer, unassigned; (+)) [Example 1.2, (+)-(E)-2-cinnamyl-1-cyclopropylmethylpyrrolidine] | < 0.1 | – |
| 1.4 | C(=C\c1ccccc1)/CC1CCCCN1CC1CC1 (single isomer, unassigned; (-)) [Example 2A.3, (-)-(E)-2-cinnamyl-1-(cyclopropylmethyl)piperidine] | – | – |
| 1.3 | C(=C\c1ccccc1)/CC1CCCN1CCc1ccccc1 (stereo not drawn) [Example 1.6, (E)-2-cinnamyl-1-phenethylpyrrolidine] | – | – |
